Patent publication US7960614B2, “Plant transformation and selection” (Arborgen, LLC, priority 2003, dated 2011)

How the values were obtained:
[1] = test system: Loblolly pine (Pinus taeda) and hybrid pine (P. taeda×P. rigida) embryogenic cell lines; assay: Selection of co-bombarded (als + nptII) pine embryogenic cells on Geneticin or Oust; type: cell-based
Source text: This example describes the selection of genetically transformed pine, using a selectable marker encoding ALS on selection media containing a sulfonylurea herbicide, at a level sufficient for selection in model plants. In some experiments, including the one described in the following example, a vector that would express the als gene in the plant tissue was co-bombarded into the cells with a vector that would express the nptII gene in the plant tissue, and the co-bombarded cells were then divided into two groups and placed onto selection medium containing either a sulfonylurea herbicide or Geneticin, so that the frequency with which transformants are selected on Geneticin could be compared with the frequency of selection on herbicide.
Twenty identical replicates from the suspension cells of each of these three pine lines were prepared for gene transfer according to the method described in U.S. Pat. No. 6,518,485. Polyester membrane supports of a defined weight were sterilized by autoclaving and placing in separate sterile Buchner funnels, and approximately 1.5 ml of uniform pine embryogenic suspension at SCV 30 was pipetted onto each support such that the embryogenic tissue was evenly distributed over its surface. […]

[2] = test system: loblolly pine and loblolly x pitch pine hybrid embryogenic lines; assay: Growth of pine embryogenic lines on Oust with and without casein hydrolysate (FIG. 9); type: cell-based, Pinus taeda; loblolly x pitch pine hybrid; settings: Oust at 0, 10, 20, 40, and 80 nM, DCR2 with and without casein hydrolysate, twelve weeks
Procedure: Six embryogenic lines, two each from three different families (two genetically diverse loblolly pine families and a family of a loblolly x pitch pine hybrid), were evaluated. Uniform suspension cultures from each of the genetically different tissue culture lines were established as described in Example 26. Three identical replicates from the suspension cells of each of these six lines were plated as described in Example 26 on each of ten formulations of DCR2 medium, namely with and without casein hydrolysate, and containing the herbicide Oust at 0, 10, 20, 40, and 80 nM. The plates were sealed and incubated under the same conditions used for pre-experimental initiation, maintenance and selection steps in Example 26. Every three weeks the culture was transferred to fresh medium of the same formulation as previously provided, following weighing under sterile conditions of the tissue on the polyester support.

[3] = test system: loblolly cell lines; assay: asa2 (pWVC33) selection on Geneticin, 5MT or AMT, PCR check (Example 32); type: cell-based, Pinus taeda; settings: Geneticin 15 mg/L with casein hydrolysate, 5MT or AMT 30 mg/L with AA4; for PCR confirmed positive (number of lines): of 12, 8, 22 lines PCR tested
Procedure: Two loblolly cell lines were prepared for transformation using the method of Example 28, and co-cultivated with Agrobacterium tumefaciens transformed with pWVC33 (FIG. 7) as described in Example 28. Following eradication of Agrobacterium, each cell line was equally divided onto 6 plates each of 5 different selection media containing either casein hydrolysate and Geneticin at 15 mg/L, or amino acid mixture AA4 and either 5-methyltryptophan (5MT) at 30 or 50 mg/L or […] (AMT) at 30 or 50 mg/L. The results are show in FIG. 12. Putatively transformed sublines grow on Geneticin-containing plates and on both selection treatments where 30 mg/L of the methylated tryptophan selective analog was incorporated.

[4] = test system: E. dunnii clone DUN00001; assay: Shoot regeneration from Agrobacterium-inoculated internodal explants, zeatin/NAA optimisation; type: cell-based, Eucalyptus dunnii
Procedure: This example teaches a method to optimize the levels of growth regulators for shoot regeneration from the recalcitrant commercial E. dunnii clone DUN00001 or other recalcitrant clones. Internodal explants are prepared as described in Example 1 and are inocultated with Agrobacterium as described in Example 5. Following co-cultivation, transformed shoot clumps are transferred to a shoot regeneration medium. […] To optimize the auxin and cytokinin concentrations in the shoot regeneration media, several combinations of hormones were evaluated as a function of the production of elongated shoots. […] During the initial screening, the zeatin levels were 10, 1, and 0.1 mg/l and the NAA levels were 0.01, 0.1 and 1 mg/l. […] The following data summarize the attempt to optimize the level of zeatin and NAA.

[5] = test system: E. camaldulensis clone C9; assay: Geneticin selection of NPTII transformants, GUS staining of resistant shoot lines; type: cell-based, Eucalyptus camaldulensis; settings: 8 weeks selection
Procedure: Similar to the methods disclosed in Example 16, E. camaldulensis clone C9 was transformed with GV2260 harboring p35SGUSINT. Following regeneration, the explants were transferred to a selection medium containing geneticin (30, 40, 50, or 60 mg/l geneticin). For geneticin at levels of 30 and 50 mg/l, additional sets of explants were pre-cultured for 1 day. After 8 weeks on selection medium, samples of geneticin-resistant shoot cultures in the early developmental stage were collected and stained with x-gluc for GUS expression.

[6] = test system: Eucalyptus grandis x urophylla Clone IPB1; assay: Geneticin selection of NPTII transformants, GUS staining of resistant calli; type: cell-based; settings: about 10 weeks
Procedure: Before transforming, the explants were pre-cultured for 4 days on a medium having auxin enrichment (IAA at 2 mg/l instead of 0.1 mg/l NAA in standard regeneration medium) and acetosyringone (250 μM). As described in Example 6, the explants were infected with Agrobacterium, co-cultivated on the same medium for 3 days, and then transferred to a regeneration medium supplemented with 400 mg/l timentin for 4 days. Then, the explants were transferred to a selection medium containing geneticin instead of an herbicide selection agent.
The transformants were placed on geneticin selection medium containing geneticin (either 20 or 30 mg/l). Instead of the 3- or 4-week transfer cycles used with an herbicide selection medium, the explants were transferred bi-weekly to fresh geneticin medium. After about 10 weeks of growth on geneticin selection medium, samples of geneticin-resistant calli were collected and stained with x-gluc for GUS expression, as described in Example 7. The following data summarizes GUS expression in geneticin-selected transformants.

[7] = test system: E. grandis clone IP1; assay: Geneticin selection of NPTII transformants, GUS staining of resistant shoot lines; type: cell-based, Eucalyptus grandis; settings: 8 weeks
Procedure: (Arabidopsis ActinII.:GUSINT, constitutive::NPTII). As described in Example 4, leaf explants from E. grandis clone IP1 were pre-cultured on a pre-culture medium comprising auxin and an Agrobacterium inducer. The explants were transformed with Agrobacterium and co-cultivated for 3 days on a pre-culture medium with auxin enrichment (IAA at 2 mg/l, instead of 0.1 mg/l NAA in standard regeneration medium) and acetosyringone (250 μM). Then the explants were transferred to Euc Regeneration medium supplemented with 400 mg/l timentin for 4 days. The explants were then transferred to selection medium containing geneticin (30 or 40 mg/l geneticin). After 8 weeks on selection medium, samples of geneticin-resistant shoot cultures in the early developmental stage were collected and stained with x-gluc for GUS expression.

COC(=O)c1ccccc1S(=O)(=O)NC(=O)Nc1nc(C)cc(C)n1 [Oust]
putative transgenic sublines that were false positives ([1]; selection on 50 nM Oust, medium with casein hydrolysate): Eighty
success as selective agent (stopping cell growth), FIG. 9 [2]: successful as a selective agent at multiple concentrations only in the absence of casein hydrolysate

CC(c1c[nH]c2ccccc12)[C@H](N)C(=O)O (stereo partly drawn) [AMT30, β-methyltryptophan]
False positive Frequency [3]: 0.09
PCR confirmed positive (number of lines) [3]: 20

C/C(=C\CNc1ncnc2[nH]cnc12)CO [Zeatin, zeatin]
shoot induction, comparison of levels in two experiments ([4]; Table 5 experiments): zeatin at 5 mg/l is better than 10 mg/l
shoot regeneration, initial screening of levels ([4]; zeatin 10, 1, and 0.1 mg/l with NAA 0.01, 0.1 and 1 mg/l): better results at 10 mg/l than at 1 mg/l or 0.1 mg/l

CN[C@@H]1[C@@H](O)[C@@H](O[C@@H]2[C@@H](O)[C@H](O[C@H]3O[C@H]([C@@H](C)O)[C@@H](O)[C@H](O)[C@H]3N)[C@@H](N)C[C@H]2N)OC[C@]1(C)O [Geneticin]
False positive Frequency [3]: 0.08
PCR confirmed positive (number of lines) [3]: 11
putative transgenic sublines in which stable transformation is verified ([1]; selection on Geneticin 15 mg/L, 12 sublines tested): 100%
% GUS^+ Shoots ([5]; Geneticin 30 mg/l, pre-culture 1 day): 37.9%
No. GUS^+ Shoot Lines ([5]; Geneticin 30 mg/l, pre-culture 1 day, 29 lines stained): 11
% GUS^+ Shoots ([5]; Geneticin 30 mg/l, pre-culture 4 days): 12.8%
No. GUS^+ Shoot Lines ([5]; Geneticin 30 mg/l, pre-culture 4 days, 39 lines stained): 5
% GUS^+ Shoots ([5]; Geneticin 40 mg/l, pre-culture 4 days): 11.8%
No. GUS^+ Shoot Lines ([5]; Geneticin 40 mg/l, pre-culture 4 days, 68 lines stained): 8
% GUS^+ Shoots ([5]; Geneticin 50 mg/l, pre-culture 1 day): 50%
No. GUS^+ Shoot Lines ([5]; Geneticin 50 mg/l, pre-culture 1 day, 12 lines stained): 6
% GUS^+ Shoots ([5]; Geneticin 50 mg/l, pre-culture 4 days): 19.4%
No. GUS^+ Shoot Lines ([5]; Geneticin 50 mg/l, pre-culture 4 days, 31 lines stained): 7
% GUS^+ Shoots ([5]; Geneticin 60 mg/l, pre-culture 4 days): 50%
No. GUS^+ Shoot Lines ([5]; Geneticin 60 mg/l, pre-culture 4 days, 8 lines stained): 4
No. GUS^+ Calli ([6]; Geneticin 20 mg/l, regular shaded light, 5 calli stained): 0
No. GUS^+ Calli ([6]; Geneticin 30 mg/l, dark, 6 calli stained): 4
No. GUS^+ Calli ([6]; Geneticin 30 mg/l, regular shaded light, 17 calli stained): 13
% GUS^+ Shoots ([7]; explant source rooted plants, Geneticin 30 mg/l): 0%
No. GUS^+ Shoot Lines ([7]; explant source rooted plants, Geneticin 30 mg/l, 1 line stained): 0
% GUS^+ Shoots ([7]; explant source shoot cluster, Geneticin 30 mg/l): 50%
No. GUS^+ Shoot Lines ([7]; explant source shoot cluster, Geneticin 30 mg/l, 16 lines stained): 8
% GUS^+ Shoots ([7]; explant source shoot cluster, Geneticin 40 mg/l): 57%
No. GUS^+ Shoot Lines ([7]; explant source shoot cluster, Geneticin 40 mg/l, 7 lines stained): 4
